Data on 17 molecules can be found in US7629344B2, “3-(imidazolyl)-pyrazolo[3,4-b]pyridines” (ChemoCentryx, Inc., priority 2007, dated 2009).

Bounds are passed on as bounds.

What is called IC50 is the point on the concentration scale where inhibition reaches its midpoint. The low end stands for inhibition by little substance, the high end for a need for much substance. What is called melting point is the temperature, or range, at which the solid turns liquid.

For the first series, the target named is T1, CCR1 (Homo sapiens, UniProt P32246).
T1 construct: host or cells: THP-1 cells or freshly isolated monocytes
T1 sequence (P32246 1-355): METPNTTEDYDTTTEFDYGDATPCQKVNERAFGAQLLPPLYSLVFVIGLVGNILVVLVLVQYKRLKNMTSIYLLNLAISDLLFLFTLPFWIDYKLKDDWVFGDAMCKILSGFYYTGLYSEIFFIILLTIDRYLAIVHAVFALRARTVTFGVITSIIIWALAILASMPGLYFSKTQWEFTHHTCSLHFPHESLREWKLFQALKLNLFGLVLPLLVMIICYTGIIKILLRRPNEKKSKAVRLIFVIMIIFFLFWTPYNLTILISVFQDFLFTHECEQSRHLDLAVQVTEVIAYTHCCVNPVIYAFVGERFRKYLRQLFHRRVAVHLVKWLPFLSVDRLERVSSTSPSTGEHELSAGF
In words: Chemotaxis assay (inhibition of CCR1 mediated migration). In kind it is cell-based. To be noted: THP-1 or monocyte cells; CCR1 chemokine ligand (MIP-1α, CCL15/Leukotactin); 1-2 hours at 37° C. The protocol: THP-1 cells were obtained from ATCC (TIB-202) and cultured as a suspension in RPMI-1640 medium supplemented with 2 mM L-glutamine, 1.5 g/L sodium bicarbonate, 4.5 g/L glucose, 10 mM HEPES, 1 mM sodium pyruvate, 0.05% 2-mercaptoethanol and 10% FBS. Cells were grown under 5% CO2/95% air, 100% humidity at 37° C. and subcultured twice weekly at 1:5 (cells were cultured at a density range of 2×10^5 to 2×10^6 cells/mL) and harvested at 1×10^6 cells/mL. THP-1 cells express CCR1 and can be used in CCR1 binding and functional assays. • 2. Chemotaxis Assays
Chemotaxis assays were performed using 5 μm pore polycarbonate, polyvinylpyrrolidone-coated filters in 96-well chemotaxis chambers (Neuroprobe; Gaithersburg, Md.) using chemotaxis buffer (Hank's balanced salt solution (HBSS) and 1% FBS). CCR1 chemokine ligands (i.e., MIP-1α, CCL15/Leukotactin; R&D Systems; Minneapolis, Minn.) are use to evaluate compound mediated inhibition of CCR1 mediated migration. Other chemokines (i.e., SDF-1α; R&D Systems; Minneapolis, Minn.) are used as specificity controls. The lower chamber was loaded with 29 μl of chemokine (i.e., 0.1 nM CCL15/Leukotactin) and varying amounts of compound; the top chamber contained 100,000 THP-1 or monocyte cells in 20 μl. The chambers were incubated 1-2 hours at 37° C., and the number of cells in the lower chamber quantified either by direct cell counts in five high powered fields per well or by the CyQuant assay (Molecular Probes), a fluorescent dye method that measures nucleic acid content and microscopic observation. • B. Identification of Inhibitors of CCR1
One of the primary functions of chemokines is their ability to mediate the migration of chemokine receptor-expressing cells, such as white blood cells. To confirm that a compound of interest inhibited not only CCR1 specific binding and signaling (at least as determined by calcium mobilization assays), but also CCR1 mediated migration, a chemotaxis assay was employed. THP-1 myelomonocytic leukemia cells, which resemble monocytes, as wells as freshly isolated monocytes, were used as targets for chemoattraction by CCR1 chemokine ligands (i.e., MIP-1α, CCL15/leukotactin). Cells were placed in the top compartment of a microwell migration chamber, while MIP-1α (or other potent CCR1 chemokine ligand) and increasing concentrations of a compound of interest was loaded in the lower chamber. […] In this assay, the amount of compound was varied; while cell number and chemokine agonist concentrations were held constant. After the chemotaxis chambers were incubated 1-2 hours at 37° C., the responding cells in the lower chamber were quantified by labeling with the CyQuant assay (Molecular Probes), a fluorescent dye method that measures nucleic acid content, and by measuring with a Spectrafluor Plus (Tecan). The computer program Prism from GraphPad, Inc. (San Diego, Calif.) was used to calculate IC50 values. IC50 values are those compound concentrations required to inhibit the number of cells responding to a CCR1 agonist by 50%. • 1. In Vivo Efficacy • a) Rabbit Model of Destructive Joint Inflammation
As for `COc1cc(N2CCN(C(=O)Cn3nc(-c4nccn4C)c4cccnc43)CC2)ccc1Cl` [1.017, 1-[4-(4-Chloro-3-methoxy-phenyl)-piperazin-1-yl]-2-[3-(1-methyl-1H-imidazol-2-yl)-pyrazolo[3,4-b]pyridin-1-yl]-ethanone], the half-inhibitory concentration (IC50) was at most 100 nM.

`CCOc1cc(N2CCN(C(=O)Cn3nc(-c4ncc[nH]4)c4cccnc43)CC2)ccc1Cl` [1.003, 1-[4-(4-Chloro-3-ethoxyphenyl)piperazin-1-yl]-2-[3-(1H-imidazol-2-yl)pyrazolo[3,4-b]pyridin-1-yl]ethanone] displayed an IC50 of at most 100 nM.

Turning to `O=C(Cn1nc(-c2ncc[nH]2)c2cccnc21)N1CCN(c2ccc(Cl)c(OC(F)(F)F)c2)CC1` [1.015, 1-[4-(4-Chloro-3-trifluoromethoxy-phenyl)-piperazin-1-yl]-2-[3-(1H-imidazol-2-yl)-pyrazolo[3,4-b]pyridin-1-yl]-ethanone], the IC50 was above 100 nM.

As for `Cc1cc(N2CCN(C(=O)Cn3nc(-c4ncc[nH]4)c4cccnc43)CC2)ccc1Cl` [1.013, 1-[4-(4-Chloro-3-methyl-phenyl)-piperazin-1-yl]-2-[3-(1H-imidazol-2-yl)-pyrazolo[3,4-b]pyridin-1-yl]-ethanone], the IC50 was at most 100 nM.

The molecule `COc1cc(N2CCN(C(=O)Cn3nc(-c4ncc[nH]4)c4cccnc43)[C@@H](C)C2)c(F)cc1Cl` [1.006, 1-[(S)-4-(4-Chloro-2-fluoro-5-methoxyphenyl)-2-methylpiperazin-1-yl]-2-[3-(1H-imidazol-2-yl)pyrazolo[3,4-b]pyridin-1-yl]ethanone] showed a half-maximal inhibitory concentration (IC50) of at most 100 nM.

In turn, `COc1cc(N2CCN(C(=O)Cn3nc(-c4ncc[nH]4)c4cccnc43)CC2)ccc1Cl` [1.016, 1-[4-(4-Chloro-3-methoxy-phenyl)-piperazin-1-yl]-2-[3-(1H-imidazol-2-yl)-pyrazolo[3,4-b]pyridin-1-yl]-ethanone] gave an IC50 of at most 100 nM.

Molecule `COc1cc(N2CCN(C(=O)Cn3nc(-c4ncc[nH]4)c4cccnc43)CC2)c(F)cc1Cl` [1.004, 1-[4-(4-Chloro-2-fluoro-5-methoxyphenyl)piperazin-1-yl]-2-[3-(1H-imidazol-2-yl)-pyrazolo[3,4-b]pyridin-1-yl]ethanone] had an IC50 of at most 100 nM.

Consider `O=C(Cn1nc(-c2ncc[nH]2)c2cccnc21)N1CCN(c2ccc(Cl)c(OCCF)c2)CC1` [1.011, 2-(3-(1H-imidazol-2-yl)-1H-pyrazolo[3,4-b]pyridin-1-yl)-1-(4-(3-(2-fluoroethoxy)-4-chlorophenyl)piperazin-1-yl)ethanone], for which the IC50 was at most 100 nM.

In the case of `COc1cc(N2CCN(C(=O)Cn3nc(-c4ncc[nH]4)c4cccnc43)C[C@H]2C)ccc1Cl` [1.007, 1-[(R)-4-(4-Chloro-3-methoxyphenyl)-3-methylpiperazin-1-yl]-2-[3-(1H-imidazol-2-yl)-pyrazolo[3,4-b]pyridin-1-yl]ethanone], the IC50 was at most 100 nM.

Consider `O=C(Cn1nc(-c2ncc[nH]2)c2cccnc21)N1CCN(c2cc(OCCF)c(Cl)cc2F)CC1` [1.002, 1-{4-[4-Chloro-2-fluoro-5-(2-fluoroethoxy)-phenyl]piperazin-1-yl}-2-[3-(1H-imidazol-2-yl)-pyrazolo[3,4-b]pyridin-1-yl]ethanone], for which the IC50 is at most 100 nM.

Turning to `C[C@H]1CN(c2ccc(Cl)c(OCCF)c2)CCN1C(=O)Cn1nc(-c2ncc[nH]2)c2cccnc21` [1.012, 2-(3-(1H-imidazol-2-yl)-1H-pyrazolo[3,4-b]pyridin-1-yl)-1-((S)-4-(3-(2-fluoroethoxy)-4-chlorophenyl)-2-methylpiperazin-1-yl)ethanone], the half-maximal inhibitory concentration (IC50) was at most 100 nM.

In turn, `COc1cc(N2CCN(C(=O)Cn3nc(-c4ncc[nH]4)c4cccnc43)[C@@H](C)C2)ccc1Cl` [1.005, 1-[(S)-4-(4-Chloro-3-methoxyphenyl)-2-methylpiperazin-1-yl]-2-[3-(1H-imidazol-2-yl)-pyrazolo[3,4-b]pyridin-1-yl]ethanone] came in with an IC50 of at most 100 nM.

`COc1cc(N2CCN(C(=O)Cn3nc(-c4ncc[nH]4)c4cccnc43)[C@H](C)C2)ccc1Cl` [1.009, 1-[(R)-4-(4-Chloro-3-methoxyphenyl)-2-methylpiperazin-1-yl]-2-[3-(1H-imidazol-2-yl)-pyrazolo[3,4-b]pyridin-1-yl]ethanone] displayed a concentration for half-maximal inhibition (IC50) of at most 100 nM.

For `CCOc1cc(N2CCN(C(=O)Cn3nc(-c4ncc[nH]4)c4cccnc43)[C@@H](C)C2)ccc1Cl` [1.010, 2-(3-(1H-imidazol-2-yl)-1H-pyrazolo[3,4-b]pyridin-1-yl)-1-((S)-4-(4-chloro-3-ethoxyphenyl)-2-methylpiperazin-1-yl)ethanone], the IC50 is at most 100 nM.

The molecule `O=C(Cn1nc(-c2ncc[nH]2)c2cccnc21)N1CCN(c2ccc(Cl)c(C(F)(F)F)c2)CC1` [1.014, 1-[4-(4-Chloro-3-trifluoromethyl-phenyl)-piperazin-1-yl]-2-[3-(1H-imidazol-2-yl)-pyrazolo[3,4-b]pyridin-1-yl]-ethanone] showed an IC50 above 100 nM.

Turning to `CCOc1cc(N2CCN(C(=O)Cn3nc(-c4ncc[nH]4)c4cccnc43)CC2)c(F)cc1Cl` [1.001, 1-[4-(4-Chloro-5-ethoxy-2-fluorophenyl)piperazin-1-yl]-2-[3-(1H-imidazol-2-yl)-pyrazolo[3,4-b]pyridin-1-yl]ethanone], the IC50 was at most 100 nM.

`COc1cc(N2CCN(C(=O)Cn3nc(-c4ncc[nH]4)c4cccnc43)C[C@@H]2C)ccc1Cl` [1.008, 1-[(S)-4-(4-Chloro-3-methoxyphenyl)-3-methylpiperazin-1-yl]-2-[3-(1H-imidazol-2-yl)-pyrazolo[3,4-b]pyridin-1-yl]ethanone] had an IC50 of at most 100 nM.

Test system in a further series: not listed separately
The series can be described thus: Pharmacokinetic tests conducted in animals. To be noted: over related compounds (U.S. Publication No. 2007/0010524A1). In kind it is in vivo.
For the molecule `COc1cc(N2CCN(C(=O)Cn3nc(-c4ncc[nH]4)c4cccnc43)CC2)ccc1Cl` [1.016, 1-[4-(4-Chloro-3-methoxy-phenyl)-piperazin-1-yl]-2-[3-(1H-imidazol-2-yl)-pyrazolo[3,4-b]pyridin-1-yl]-ethanone], the AUC result is reported as “increased”, the Cmax entry is recorded as “increased” and the oral bioavailability entry was “improved”.

The test system of another series is Female New Zealand rabbits. In words: Rabbit model of destructive joint inflammation (rabbit LPS study). In kind it is in vivo. The conditions noted are these: intra-articular LPS (10 ng) in both knees; dosed orally 2 hours before and 4 hours after LPS; knees lavaged sixteen hours after LPS. The protocol: A rabbit LPS study was conducted essentially as described in Podolin, et al. J. Immunol. 169(11):6435-6444 (2002). Female New Zealand rabbits (approximately 2 kilograms) were treated intra-articularly in both knees with LPS (10 ng). The compound of interest, for example 1.016, (formulated in 1% methocel) or vehicle (1% methocel) was dosed orally at a 5 ml/kg dose volume at two times (2 hours before the intra-articular LPS injection and 4 hours after the intra-articular LPS injection). Sixteen hours after the LPS injection, knees were lavaged and cells counts were performed. Beneficial effects of treatment were determined by reduction in the number of inflammatory cells recruited to the inflamed synovial fluid of the knee joints.
Take `COc1cc(N2CCN(C(=O)Cn3nc(-c4ncc[nH]4)c4cccnc43)CC2)ccc1Cl` [1.016, 1-[4-(4-Chloro-3-methoxy-phenyl)-piperazin-1-yl]-2-[3-(1H-imidazol-2-yl)-pyrazolo[3,4-b]pyridin-1-yl]-ethanone]: the “number of inflammatory cells recruited to the inflamed synovial fluid of the knee joints” value is reported as “significant reduction”.

Test system in the next series: not given
Assay: not given
Settings: not given
Consider `COc1cc(N2CCN(C(=O)Cn3nc(-c4ncc[nH]4)c4cccnc43)CC2)ccc1Cl` [1.016, 1-[4-(4-Chloro-3-methoxy-phenyl)-piperazin-1-yl]-2-[3-(1H-imidazol-2-yl)-pyrazolo[3,4-b]pyridin-1-yl]-ethanone], for which the melting point lay in the range of 149 to 152 °C.
